Experimental data: US20080254487A1, “Connective Tissue Growth Factor Signaling” (FIBROGEN, INC., priority 2004, published 2008)
One block for each molecule: values may come before it.

Assays:
CTGF [1] = biological target: T1, CTGF (Homo sapiens, UniProt P29279); assay: Co-immunoprecipitation assay, interaction with CTGF; assay type: binding; conditions: FIG. 8A, FIG. 9
T1 sequence (P29279 27-349): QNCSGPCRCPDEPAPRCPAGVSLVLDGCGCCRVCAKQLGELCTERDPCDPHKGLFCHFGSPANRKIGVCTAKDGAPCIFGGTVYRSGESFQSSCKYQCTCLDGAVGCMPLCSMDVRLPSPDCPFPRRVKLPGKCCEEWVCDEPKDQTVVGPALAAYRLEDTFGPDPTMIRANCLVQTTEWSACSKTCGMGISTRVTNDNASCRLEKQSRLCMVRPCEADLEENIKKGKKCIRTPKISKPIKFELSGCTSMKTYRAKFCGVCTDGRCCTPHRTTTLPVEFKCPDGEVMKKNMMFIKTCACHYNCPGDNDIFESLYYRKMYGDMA
Method: (§1) Co-immunoprecipitation is a purification procedure used to determine if two different molecules, e.g., proteins, directly interact. Basically, an antibody specific to a protein of interest is added to a cell lysis under conditions suitable for antibody binding to the protein. The antibody-protein complex is then collected, e.g., using protein-G sepharose, which binds most antibodies. Any molecules that are bound to the precipitated protein will also be collected. Identification of proteins can be determined by, e.g., western blot or by direct sequencing of the purified protein(s). Several commercial kits, e.g., the PROFOUND co-immunoprecipitation kit from Pierce Biotechnology, Inc. (Rockford Ill.) are also available.
(§2) In the present examples, co-immunoprecipitations were performed as follows. The surface of intact cells was iodinated with ^125I prior to lysing cells and fractionating on a CTGF affinity column. Alternatively, CTGF and labeled cells were incubated for a period sufficient for CTGF binding to cells, and then cells were lysed and immunoprecipitations were performed using anti-CTGF specific antibodies. Antibody complexes were collected from the lysate using protein-G sepharose, and pelleted by centrifugation. Proteins eluted from affinity columns or collected by immunoprecipitation were analyzed by fractionation on SDS-PAGE and visualized by autoradiography. […]

CTGF and betaglycan = biological target: T2, CTGF and betaglycan (Homo sapiens, UniProt P29279); assay: Co-immunoprecipitation assay, binding between CTGF and betaglycan; conditions: soluble betaglycan, bFGF and CTGF mixed; dose-sensitive; FIG. 9
T2 sequence (P29279 27-349): T1 sequence (P29279 27-349)
Method: as §1, §2

[2] = biological target: T3, recombinant human CTGF (rhCTGF) (Homo sapiens, UniProt P29279); assay: Cell adhesion assay (CTGF-mediated cell adhesion); assay type: cell-based; conditions: HFF cells; increasing concentrations added to the adhesion reaction; FIGS. 3C, 6A, 7A
T3 construct: in the presence of no CTGF, full-length CTGF, the N-terminal half of CTGF (NH2 fragment); made in house; host or cells: Hi5 insect cells infected with baculovirus (pFASTBAC1; virus generated in Sf9)
T3 sequence (P29279 27-349): T1 sequence (P29279 27-349)
Method: Methods for measuring cell adhesion mediated by CTGF are generally known to those skilled in the art. (See, e.g., Babic et al. (1999) Mol Cell Biol 19:2958-296; Ball et al. (2003) J Endocrinol 176:R1-7.) In some experiments, wells of a MAXISORP plate (Nunc Nalgene) were treated with 10 μg/ml recombinant human CTGF (rhCTGF) to directly adsorb CTGF to the well. Alternatively, wells were coated with a human monoclonal antibody specific for human CTGF, and then were blocked with bovine serum albumin to prevent non-specific binding. 2 μg/1 ml rhCTGF or fragments thereof, or a vehicle control was added to each well. Plates were then washed 3 times with PBS, cells were added at a seed density of approximately 8×10^3 cells/well, and plates were incubated for 45 minutes at 37° C. Wells were then washed twice, and the number of cells retained in each well was measured using a CYQUANT cell proliferation assay kit (Molecular Probes, Inc., Eugene Oreg.). Alternatively, attached cells were lysed in 2% Triton and lactate dehydrogenase (LDH) activity was measured using a cytotoxicity detection (LDH) kit (Roche Diagnostics Corp., Chicago, Ill.). LDH levels were compared against a standard curve generated using known numbers of cells, and results of experiment were expressed as numbers of attached cells per well.
CTGF has been described as a heparin-binding growth factor. As cells may carry a variety of proteoglycan moieties on their surface, e.g., heparan sulfate, chondroitin sulfate, etc. (see FIG. 3A), the following experiment was conducted to determine the specificity of CTGF for such moieties. The cell adhesion and cell binding assays were conducted as described in Examples 3.1 and 3.2, respectively, except prior to seeding cells were treated for 1 hour at 37° C. with either vehicle, 4 units/ml heparinase I, or 2 units/ml chondroitinase ABC.
To further examine the requirement for heparan sulfate proteoglycans in CTGF-mediated cell adhesion, adhesion was measured in the presence of increasing amounts of heparin. […]

CTGF [3] = biological target: T1, CTGF; assay: CTGF displacement assay (endogenous CTGF displaced from cells, sandwich ELISA); assay type: cell-based; design: measured displacement of CTGF endogenously produced by cells; endogenous in cells; host or cells: HLF and MG63 cells (constitutive or TGF-β2-induced expression); conditions: HLF or MG63 cells; titrated amounts of sulfated polysaccharides; FIGS. 6B, 7B
Method: Alternatively, cell binding was measured using a CTGF displacement assay. The displacement assay used in the present examples measured displacement of CTGF endogenously produced by cells. HLF and MG63 cells were separately used in the displacement assay as follows. In all experiments, cells were plated in 96-well tissue culture plates at a seed density of 2.5×10^4 cells/well. Cells were incubated for approximately 24 hours at 37° C., and then medium was replaced with a serum-free medium containing titrated amounts of sulfated polysaccharides (glycosaminoglycans, GAGs). In some experiments, constitutive CTGF expression accounted for the displaced CTGF, whereas in other experiments additional levels of CTGF were induced by addition of TGF-β2 in culture media 30 minutes prior to change of media and addition of GAGs. MG63 cells were incubated for either 3 or 6 hrs, and HLF cells were incubated for 20 hrs, at 37° C., and then conditioned media was assayed for N-fragment and full-length CTGF using a sandwich ELISA assay. (See International Publication No. WO 03/024308.)
To determine size requirements for modulation of CTGF-mediated cell adhesion and cell binding, heparin moieties containing differing saccharide subunit number were examined. Polysaccharide lengths tested ranged from 10 to approximately 50 saccharides, and experiments were carried out as described in examples 3.1 and 3.3. […]

CTGF [4] = biological target: T1, CTGF; assay: CTGF binding assay (binding of CTGF to cells, FACS); assay type: cell-based; conditions: increasing concentrations of heparin or modified heparin, FIG. 4
Method: Methods for measuring binding of CTGF to cells are generally known to those skilled in the art. (See, e.g., Nishida (1998) Biochem Biophys Res Commun 247:905-909; Segarini et al. (2001) J Biol Chem 276:40659-40667.) In one method used herein, cells were suspended in media containing CTGF under conditions suitable for binding of CTGF to cellular targets, e.g., incubation at 4° C. Cells may optionally be treated prior to or concurrently with CTGF exposure; for example, cells may be treated with enzymes that alter cell surface moieties, molecules that compete competitively or non-competitively with CTGF for binding to cells, etc. Following incubation, cells were washed and then incubated with fluorescently-labeled anti-CTGF antibody. The level of CTGF binding was then measured using a FACS apparatus.
To determine the specificity of sulfation and charge distribution for CTGF-mediated cell adhesion and cell binding, experiments as described in Examples 3.1, 3.2, and 3.3, were performed with the following modification. Combination of HFF cells with CTGF was accompanied by addition of increasing concentrations of heparin that was modified to contain differing amounts of sulfation and/or acetylation.

Molecule: bFGF: basic fibroblast growth factor
interaction with CTGF (co-immunoprecipitation with anti-CTGF antibodies) (CTGF [1]): clear interaction
binding between CTGF and betaglycan in the presence of the factor (CTGF and betaglycan): adversely influenced

Molecule: chondroitin sulfate [naturally sulfated chondroitin]
CTGF-mediated (CTGF-dependent) cell adhesion, effect of added polysaccharide [2]: no modulation
binding of CTGF to cells (displacement assay) (CTGF [3]): no modulation

Molecule: heparin
CTGF-mediated (CTGF-dependent) cell adhesion, effect of added polysaccharide [2]: inhibited
binding of CTGF to HFF, inhibition (CTGF [4]): substantially inhibit

The remaining lines, values ahead:

CTGF-mediated (CTGF-dependent) cell adhesion, effect of added polysaccharide [2]: no modulation
binding of CTGF to cells (displacement assay) (CTGF [3]): no modulation
Molecule: dermatan sulfate [naturally sulfated dermatan]

interaction with CTGF (co-immunoprecipitation with anti-CTGF antibodies) (CTGF [1]): dose-sensitive interaction
B1: sBetaglycan: soluble betaglycan (TGF-β type III receptor), a heparan sulfate proteoglycan (protein, UniProt Q03167 21-787, looked up)
extracellular domain: GPEPGALCELSPVSASHPVQALMESFTVLSGCASRGTTGLPQEVHVLNLRTAGQGPGQLQREVTLHLNPISSVHIHHKSVVFLLNSPHPLVWHLKTERLATGVSRLFLVSEGSVVQFSSANFSLTAETEERNFPHGNEHLLNWARKEYGAVTSFTELKIARNIYIKVGEDQVFPPKCNIGKNFLSLNYLAEYLQPKAAEGCVMSSQPQNEEVHIIELITPNSNPYSAFQVDITIDIRPSQEDLEVVKNLILILKCKKSVNWVIKSFDVKGSLKIIAPNSIGFGKESERSMTMTKSIRDDIPSTQGNLVKWALDNGYSPITSYTMAPVANRFHLRLENNAEEMGDEEVHTIPPELRILLDPGALPALQNPPIRGGEGQNGGLPFPFPDISRRVWNEEGEDGLPRPKDPVIPSIQLFPGLREPEEVQGSVDIALSVKCDNEKMIVAVEKDSFQASGYSGMDVTLLDPTCKAKMNGTHFVLESPLNGCGTRPRWSALDGVVYYNSIVIQVPALGDSSGWPDGYEDLESGDNGFPGDMDEGDASLFTRPEIVVFNCSLQQVRNPSSFQEQPHGNITFNMELYNTDLFLVPSQGVFSVPENGHVYVEVSVTKAEQELGFAIQTCFISPYSNPDRMSHYTIIENICPKDESVKFYSPKRVHFPIPQADMDKKRFSFVFKPVFNTSLLFLQCELTLCTKMEKHPQKLPKCVPPDEACTSLDASIIWAMMQNKKTFTKPLAVIHHEAESKEKGPSMKEPNPISPPIFHGLDTLTV
modifications: extracellular domain
notes: soluble betaglycan (TGF-β type III receptor), a heparan sulfate proteoglycan
